pIC50: −log10 of the molar value.
What was measured:
[1] = biological target: KRAS G12V (Homo sapiens, UniProt P01116, G12V); assay: GDP-GTP exchange assay (bodipy-GDP/GppNHp, SOS1), KRAS G12V; format: biochemical; details: 2.5 nM bodipy-loaded KRAS G12V, 3 h incubation after adding GppNHp-SOS1; for certain compounds the most potent isomer is quoted; read-out: KRAS_G12V exchange assay IC50
Protocol: (§1) The inhibitor potency of the exemplified compounds was determined in a fluorescence based guanine nucleotide exchange assay, which measures the exchange of bodipy-GDP (fluorescently labeled GDP) for GppNHp (Non-hydrolyzable GTP analog) to generate the active state of KRAS in the presence of SOS1 (guanine nucleotide exchange factor). Inhibitors were serially diluted in DMSO and a volume of 0.1 μL was transferred to the wells of a black low volume 384-well plate. 5 µL/well volume of bodipy-loaded KRAS G12D diluted to 2.5 nM in assay buffer (25 mM Hepes pH 7.5, 50 mM NaCl, 10 mM MgCl2 and 0.01% Brij-35) was added to the plate and pre-incubated with inhibitor for 4 h at r.t. Appropriate controls (enzyme with no inhibitor or with a G12D inhibitor) were included on the plate. The exchange was initiated by the addition of a 5 μL/well volume containing 1 mM GppNHp and 300 nM SOS1 in assay buffer. The 10 μL/well reaction concentration of the bodipy-loaded KRAS G12D, GppNHp, and SOS1 were 2.5 nM, 500 μM, and 150 nM, respectively. The reaction plates were incubated at r.t. for 2 h, a time estimated for complete GDP-GTP exchange in the absence of inhibitor. For the KRAS G12V mutant, similar guanine nucleotide exchange assays were used with 2.5 nM as final concentration for the bodipy loaded KRAS proteins and 3 h incubation after adding GppNHp-SOS1 mixture. A cyclic peptide described to selectively bind G12D mutant (Sakamoto et al., BBRC 484.3 (2017), 605-611) or internal compounds with confirmed binding were used as positive controls in the assay plates. Fluorescence intensities were measured on a PheraStar plate reader instrument (BMG Labtech) with excitation at 485 nm and emission at 520 nm.
(§2) Either GraphPad prism or Genedata Screener SmartFit was used to analyze the data. The IC50 values were derived by fitting the data to a four parameter logistic equation producing a sigmoidal dose-response curve with a variable Hill coefficient.
(§3) The symbol “†” indicates IC50≤100 nM, “††” indicates IC50>100 nM but ≤1 μM; and “†††” indicates IC50 is >1 μM but ≤5 μM, “††††” indicates IC50 is >5 µM but ≤10 μM. “NA” indicates IC50 not available.

[2] = biological target: KRAS G12D (Homo sapiens, UniProt P01116, G12D); assay: GDP-GTP exchange assay (bodipy-GDP/GppNHp, SOS1), KRAS G12D; format: biochemical; details: 2.5 nM bodipy-loaded KRAS G12D, 4 h pre-incubation, 2 h reaction with GppNHp and SOS1; for certain compounds the most potent isomer is quoted; read-out: KRAS_G12D exchange assay IC50
KRAS G12D, sequence (P01116 1-188 isoform P01116-2 G12D): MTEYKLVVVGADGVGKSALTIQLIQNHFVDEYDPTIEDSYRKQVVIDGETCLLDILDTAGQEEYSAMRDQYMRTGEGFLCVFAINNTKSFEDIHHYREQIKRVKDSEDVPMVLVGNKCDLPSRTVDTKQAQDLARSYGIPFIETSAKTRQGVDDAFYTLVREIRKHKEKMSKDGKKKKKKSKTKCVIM
Protocol: as §1, §2, §3

KRAS G12V, sequence (P01116 1-188 isoform P01116-2 G12V): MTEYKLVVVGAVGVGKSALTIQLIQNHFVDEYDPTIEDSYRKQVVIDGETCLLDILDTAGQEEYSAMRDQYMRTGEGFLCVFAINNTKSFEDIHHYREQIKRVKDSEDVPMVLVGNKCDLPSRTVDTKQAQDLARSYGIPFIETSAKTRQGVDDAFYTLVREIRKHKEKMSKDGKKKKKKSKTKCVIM

Structure (SMILES) | pIC50 [1] | pIC50 [2]
Cc1nc2c(F)c(-c3cccc(Cl)c3Cl)c(CCC#N)cc2c2c1cc([C@H]1[C@H]3C[C@H](C[C@H]3C)N1C(=O)C1CC1)n2C1[C@H]2CN[C@@H]1C2 (stereo partly drawn) [Example 18, 3-(1-((1R,4R)-2-azabicyclo[2.1.1]hexan-5-yl)-2-((1S,3R,4S,5R)-2-(cyclopropanecarbonyl)-5-methyl-2-azabicyclo[2.2.1]heptan-3-yl)-7-(2,3-dichlorophenyl)-6-fluoro-4-methyl-1H-pyrrolo[3,2-c]quinolin-8-yl)propanenitrile] | ≥ 7.00 | ≥ 7.00
Cc1nc2c(F)c(-c3cccc(Cl)c3Cl)c(CCC#N)cc2c2c1cc([C@H]1[C@H]3C[C@H](C[C@@H]3O)N1C(=O)C1CC1)n2C1[C@H]2CN[C@@H]1C2 (stereo partly drawn) [Example 16, 3-(1-((1R,4R)-2-azabicyclo[2.1.1]hexan-5-yl)-2-((1R,3R,4R,5S)-2-(cyclopropanecarbonyl)-5-hydroxy-2-azabicyclo[2.2.1]heptan-3-yl)-7-(2,3-dichlorophenyl)-6-fluoro-4-methyl-1H-pyrrolo[3,2-c]quinolin-8-yl)propanenitrile] | ≥ 7.00 | ≥ 7.00
Cc1nc2c(F)c(-c3cccc(Cl)c3Cl)c(CCC#N)cc2c2c1cc([C@H]1[C@H]3C[C@H](C[C@@H]3Oc3cccnc3)N1C(=O)C1CC1)n2[C@H]1[C@H]2CN[C@@H]1C2 (atropisomer, axis not shown; (Ra)) [Example 5, 3-((Ra)-1-((1R,4R,5S)-2-Azabicyclo[2.1.1]hexan-5-yl)-2-((1R,3R,4R,5S)-2-(cyclopropanecarbonyl)-5-(pyridin-3-yloxy)-2-azabicyclo[2.2.1]heptan-3-yl)-7-(2,3-dichlorophenyl)-6-fluoro-4-methyl-1H-pyrrolo[3,2-c]quinolin-8-yl)propanenitrile] | ≥ 7.00 | ≥ 7.00
Cc1nc2c(F)c(-c3cccc(Cl)c3Cl)c(CCC#N)cc2c2c1cc([C@H]1[C@H]3CC[C@H](C3)N1C(=O)C1CC1)n2C1C2CNC1C2 (stereo partly drawn) [Example 25, 3-(1-(2-azabicyclo[2.1.1]hexan-5-yl)-2-((1R,3R,4S)-2-(cyclopropanecarbonyl)-2-azabicyclo[2.2.1]heptan-3-yl)-7-(2,3-dichlorophenyl)-6-fluoro-4-methyl-1H-pyrrolo[3,2-c]quinolin-8-yl)propanenitrile] | 5.00 to 5.30 | 5.30 to 6.00
C[C@@H](O)c1nc2c(F)c(-c3cccc(Cl)c3Cl)c(CCC#N)cc2c2c1cc([C@H]1[C@H]3C[C@H](C[C@@H]3F)N1C(=O)C1(F)CC1)n2[C@H]1[C@H]2CN[C@@H]1C2 (single isomer, unassigned) [Example 8] | ≥ 7.00 | ≥ 7.00
Cc1nc2c(F)c(-c3cccc(Cl)c3Cl)c(CCC#N)cc2c2c1cc([C@H]1[C@@H]3CC[C@@H](C3)N1C(=O)C1CC1)n2[C@H]1[C@H]2CN[C@@H]1C2 [Example 11, 3-(1-((1R,4R,5S)-2-azabicyclo[2.1.1]hexan-5-yl)-2-((1S,3R,4R)-2-(cyclopropanecarbonyl)-2-azabicyclo[2.2.1]heptan-3-yl)-7-(2,3-dichlorophenyl)-6-fluoro-4-methyl-1H-pyrrolo[3,2-c]quinolin-8-yl)propanenitrile] | ≥ 7.00 | ≥ 7.00
Cc1nc2c(F)c(-c3cccc(Cl)c3Cl)c(CCC#N)cc2c2c1cc([C@H]1[C@H]3C[C@H](C[C@@H]3OC(F)F)N1C(=O)C1(F)CC1)n2[C@H]1[C@H]2CN[C@@H]1C2 (atropisomer, axis not shown; (Ra)) [Example 10, 3-((Ra)-1-((1R,4R,5S)-2-Azabicyclo[2.1.1]hexan-5-yl)-7-(2,3-dichlorophenyl)-2-((1R,3R,4R,5S)-5-(difluoromethoxy)-2-(1-fluorocyclopropane-1-carbonyl)-2-azabicyclo[2.2.1]heptan-3-yl)-6-fluoro-4-methyl-1H-pyrrolo[3,2-c]quinolin-8-yl)propanenitrile] | ≥ 7.00 | ≥ 7.00
Cc1nc2c(F)c(-c3cccc(Cl)c3Cl)c(CCC#N)cc2c2c1cc([C@H]1[C@H]3C[C@H]([C@@H]4C[C@@H]43)N1C(=O)C1CC1)n2C1C2CNC1C2 (stereo partly drawn) [Example 24, 3-(1-(2-azabicyclo[2.1.1]hexan-5-yl)-2-((1S,2S,4R,5R,7R)-6-(cyclopropanecarbonyl)-6-azatricyclo[3.2.1.02,4]octan-7-yl)-7-(2,3-dichlorophenyl)-6-fluoro-4-methyl-1H-pyrrolo[3,2-c]quinolin-8-yl)propanenitrile] | ≥ 7.00 | ≥ 7.00
Cc1nc2c(F)c(-c3cccc(Cl)c3Cl)c(CCC#N)cc2c2c1cc([C@H]1[C@H]3C[C@H](C[C@@H]3Oc3cccnc3)N1C(=O)C1CC1)n2C1[C@H]2CN[C@@H]1C2 (stereo partly drawn) [Example 27, 3-(1-((1R,4R)-2-azabicyclo[2.1.1]hexan-5-yl)-2-((1R,3R,4R,5S)-2-(cyclopropanecarbonyl)-5-(pyridin-3-yloxy)-2-azabicyclo[2.2.1]heptan-3-yl)-7-(2,3-dichlorophenyl)-6-fluoro-4-methyl-1H-pyrrolo[3,2-c]quinolin-8-yl)propanenitrile] | ≥ 7.00 | ≥ 7.00

Further lines, results first:

pIC50 [1] | pIC50 [2] | Structure (SMILES)
≥ 7.00 | ≥ 7.00 | Cc1nc2c(F)c(-c3cccc(Cl)c3Cl)c(CCC#N)cc2c2c1cc([C@H]1[C@H]3C[C@H](C[C@@H]3OC3CC3)N1C(=O)C1CC1)n2[C@H]1[C@H]2CN[C@@H]1C2 [Example 36, 3-(1-((1R,4R,5S)-2-Azabicyclo[2.1.1]hexan-5-yl)-2-((1R,3R,4R,5S)-2-(cyclopropanecarbonyl)-5-cyclopropoxy-2-azabicyclo[2.2.1]heptan-3-yl)-7-(2,3-dichlorophenyl)-6-fluoro-4-methyl-1H-pyrrolo[3,2-c]quinolin-8-yl)propanenitrile]
≥ 7.00 | ≥ 7.00 | C[C@@H](O)c1nc2c(F)c(-c3cccc(Cl)c3Cl)c(CCC#N)cc2c2c1cc([C@H]1[C@H]3C[C@H](C[C@H]3Cl)N1C(=O)C1(F)CC1)n2[C@H]1[C@H]2CN[C@@H]1C2 (atropisomer, axis not shown) [Example 33, 3-((R)-1-((1R,4R,5S)-2-azabicyclo[2.1.1]hexan-5-yl)-2-((1R,3R,4R,5R)-5-chloro-2-(1-fluorocyclopropane-1-carbonyl)-2-azabicyclo[2.2.1]heptan-3-yl)-7-(2,3-dichlorophenyl)-6-fluoro-4-((R)-1-hydroxyethyl)-1H-pyrrolo[3,2-c]quinolin-8-yl)propanenitrile]
≥ 7.00 | ≥ 7.00 | Cc1nc2c(F)c(-c3cccc(Cl)c3Cl)c(CCC#N)cc2c2c1cc([C@H]1[C@H]3C[C@H](C[C@@H]3OC(F)(F)F)N1C(=O)C1CC1)n2[C@H]1[C@H]2CN[C@@H]1C2 (atropisomer, axis not shown; (Ra)) [Example 41, 3-((Ra)-1-((1R,4R,5S)-2-Azabicyclo[2.1.1]hexan-5-yl)-2-((1R,3R,4R,5S)-2-(cyclopropanecarbonyl)-5-(trifluoromethoxy)-2-azabicyclo[2.2.1]heptan-3-yl)-7-(2,3-dichlorophenyl)-6-fluoro-4-methyl-1H-pyrrolo[3,2-c]quinolin-8-yl)propanenitrile]
≥ 7.00 | ≥ 7.00 | Cc1nc2c(F)c(-c3cccc(Cl)c3Cl)c(CCC#N)cc2c2c1cc([C@H]1[C@H]3C[C@H](C[C@@H]3C(F)F)N1C(=O)C1(F)CC1)n2[C@H]1[C@H]2CN[C@@H]1C2 (atropisomer, axis not shown; (Ra)) [Example 44, 3-((Ra)-1-((1R,4R,5S)-2-Azabicyclo[2.1.1]hexan-5-yl)-7-(2,3-dichlorophenyl)-2-((1R,3R,4S,5S)-5-(difluoromethyl)-2-(1-fluorocyclopropane-1-carbonyl)-2-azabicyclo[2.2.1]heptan-3-yl)-6-fluoro-4-methyl-1H-pyrrolo[3,2-c]quinolin-8-yl)propanenitrile]
≥ 7.00 | ≥ 7.00 | C[C@@H](O)c1nc2c(F)c(-c3cccc(Cl)c3Cl)c(CCC#N)cc2c2c1cc([C@H]1[C@H]3C[C@H](C[C@@H]3OC3CC3)N1C(=O)C1(F)CC1)n2[C@H]1[C@H]2CN[C@@H]1C2 (single isomer, unassigned) [Example 38]

— patent publication US20240368156A1, “2-AZABICYCLO[2.2.1]HEPTANE KRAS INHIBITORS” (INCYTE CORPORATION, priority 2023, published 2024)
